Measured values as given in patent US12685312B2, “Sulfonamide apyrase inhibitors” (Texas Crop Science, Inc., priority 2022, dated 2026).

test system: apyrase; experiment: Screen for apyrase inhibitors (Method 1, in vitro phosphate-release absorbance assay); format: biochemical; conditions: inhibitor conc at 1 mM stock, 1 hr room temperature, absorbance 630 nm; rounded average of two assay results
Procedure: Apyrase inhibitors useful as enhancers of pesticidal activity are assessed using an in vitro assay. The method of Windsor, Bio Techniques 33:1024-1030 (November 2002) was used as follows Screen for Apyrase Inhibitors- 96 well plates were used for the assay: (Greiner bio-one: REF-655901-96 well, PS, F-bottom, Clear, Non-binding) Buffers: • Reaction Buffer: 60 mM Hepes; 3 mM MgCl2, 3 mM CaCl2 and 3 mM ATP (pH 6.5) • Development Buffer A: 2% aqueous ammonium molybdate • Development Buffer B: 11% ascorbic acid in 37.5% TCA in water • Stop buffer C: 2% trisodium citrate in 2% acetic acid solution in water • Add 100 μl of reaction buffer to each well. • Add 10 μl of DMSO (control) or inhibitor/compound or compounds such as […] or orthovanadate to each well. […] A blank cell indicates either <10% observed inhibition or a large difference between repetitions. In certain examples, the lack of observed inhibition is due to a lack of solubility of the compound under assay conditions, rather than a lack of apyrase inhibitory activity.

Going from `O=C(Nc1ccc(OC(F)(F)F)cc1)c1cccc(S(=O)(=O)Nc2ccc3c(c2)OCO3)c1` [I-200, 3-(N-(benzo[d][1,3]dioxol-5-yl)sulfamoyl)-N-(4-(trifluoromethoxy)phenyl)benzamide] to `O=C(Nc1ccc(N2CCOCC2)cc1)c1cccc(S(=O)(=O)Nc2ccc3c(c2)OCO3)c1` [I-283, 3-(N-(benzo[d][1,3]dioxol-5-yl)sulfamoyl)-N-(4-morpholinophenyl)benzamide], the “% Inhibition of Apyrase” value falls from 78% to 29%.

Compared with `O=C(Nc1cccc(S(=O)(=O)Nc2cccc(C(F)(F)F)c2)c1)c1cccnc1` [I-758, N-(3-(N-(3-(trifluoromethyl)phenyl)sulfamoyl)phenyl) nicotinamide], `Cc1ccc(C(=O)Nc2cccc(S(=O)(=O)Nc3cccc(C(F)(F)F)c3)c2)cn1` [I-740, 6-methyl-N-(3-(N-(3-(trifluoromethyl)phenyl)sulfamoyl)phenyl)nico tinamide] is higher in “% Inhibition of Apyrase” value: 28% for the first, 51% for the second.

Going from `O=C(c1cccc(S(=O)(=O)Nc2ccc3c(c2)OCO3)c1)N1CCc2ccccc21` [I-188, N-(benzo[d][1,3]dioxol-5-yl)-3-(indoline-1-carbonyl)benzenesulfonamide] to `COc1ccc(S(=O)(=O)N2CCc3ccccc32)cc1C(=O)Nc1ccc2c(c1)OCO2` [I-511, N-(benzo[d][1,3]dioxol-5-yl)-5-(indolin-1-ylsulfonyl)-2-methoxybenzamide], the “% Inhibition of Apyrase” value falls from 73% to 56%.

Compared with `O=C(NCCC1CCCO1)c1cccc(S(=O)(=O)Nc2ccc(Br)cc2)c1` (stereo not drawn) [I-42, 3-(N-(4-bromophenyl)sulfamoyl)-N-(2-(tetrahydrofuran-2-yl)ethyl)benzamide], `O=C(Nc1ccc(Br)cc1)c1cccc(S(=O)(=O)Nc2ccc(Br)cc2)c1` [I-20, N-(4-bromophenyl)-3-(N-(4-bromophenyl)sulfamoyl)benzamide] is higher in “% Inhibition of Apyrase” value: 13% for the first, 45% for the second.

Compared with `CC(=O)Nc1ccc(NC(=O)c2ccc(NS(=O)(=O)c3ccc(Br)cc3)cc2)cc1` [I-963, N-(4-acetamidophenyl)-4-((4-bromophenyl)sulfonamido)benzamide], `N#Cc1ccc(C(=O)Nc2cccc(S(=O)(=O)Nc3ccc(Br)cc3)c2)cc1` [I-332, N-(3-(N-(4-bromophenyl)sulfamoyl)phenyl)-4-cyanobenzamide] is higher in “% Inhibition of Apyrase” value: 10% for the first, 60% for the second.

First: COc1ccccc1NC(=O)c1ccc(NS(=O)(=O)c2ccc3c(c2)OCCO3)cc1 [I-898, 4-((2,3-dihydrobenzo[b][1,4]dioxine)-6-sulfonamido)-N-(2-methoxyphenyl)benzamide]
Second: Cc1cc(Br)ccc1NC(=O)c1ccc(NS(=O)(=O)c2ccc(F)cc2)cc1 [I-933, N-(4-bromo-2-methylphenyl)-4-((4-fluorophenyl)sulfonamido)benzamide]
The “% Inhibition of Apyrase” value of the first is higher: 65% for the first, 53% for the second.

First: CC1Cc2ccccc2N1S(=O)(=O)c1cccc(C(=O)N2CCCc3ccccc32)c1 (stereo not drawn) [I-465, (3,4-dihydroquinolin-1(2H)-yl)(3-((2-methylindolin-1-yl)sulfonyl)phenyl)methanone]
Second: O=C(c1cccc(S(=O)(=O)N2CCc3ccccc32)c1)N1CCc2ccccc21 [I-567, indolin-1-yl(3-(indolin-1-ylsulfonyl)phenyl)methanone]
The “% Inhibition of Apyrase” value of the first is higher: 59% for the first, 51% for the second.

First: NC(=O)c1ccc(NC(=O)c2cccc(S(=O)(=O)N3CCc4ccccc43)c2)cc1 [I-607, N-(4-carbamoylphenyl)-3-(indolin-1-ylsulfonyl)benzamide]
Second: O=C(Nc1ccc(Br)cc1F)c1cccc(S(=O)(=O)N2CCc3ccccc32)c1 [I-470, N-(4-bromo-2-fluorophenyl)-3-(indolin-1-ylsulfonyl)benzamide]
The “% Inhibition of Apyrase” value of the first is lower: 16% for the first, 59% for the second.

Compared with `Cc1cc(C(=O)Nc2cccc(S(=O)(=O)Nc3ccccc3Cl)c2)sc1C` [I-713, N-(3-(N-(2-chlorophenyl)sulfamoyl)phenyl)-4,5-dimethylthiophene-2-carboxamide], `COc1ccccc1NS(=O)(=O)c1cccc(NC(=O)c2ccc(=O)n(C)n2)c1` [I-774, N-(3-(N-(2-methoxyphenyl)sulfamoyl)phenyl)-1-methyl-6-oxo-1,6-dihydropyridazine-3-carboxamide] is lower in “% Inhibition of Apyrase” value: 58% for the first, 3% for the second.

Going from `O=C(c1ccc(NS(=O)(=O)c2ccc(F)cc2)cc1)N1CCc2ccccc21` [I-965, 4-fluoro-N-(4-(indoline-1-carbonyl)phenyl)benzenesulfonamide] to `O=C(Nc1ccc(OC(F)F)cc1)c1ccccc1NS(=O)(=O)c1ccc(F)cc1` [I-376, N-(4-(difluoromethoxy)phenyl)-2-((4-fluorophenyl)sulfonamido)benzamide], the “% Inhibition of Apyrase” value rises from 3% to 35%.

Going from `O=C(Nc1ccc(OC(F)F)cc1)c1ccccc1S(=O)(=O)Nc1cccc(C(F)(F)F)c1` [I-1, N-(4-(difluoromethoxy)phenyl)-2-(N-(3-(trifluoromethyl)phenyl)sulfamoyl)benzamide] to `O=C(Nc1ccc(Br)cc1)c1cccc(S(=O)(=O)Nc2cccc(C(F)(F)F)c2)c1` [I-250, N-(4-bromophenyl)-3-(N-(3-(trifluoromethyl)phenyl)sulfamoyl)benzamide], the “% Inhibition of Apyrase” value falls from 84% to 63%.

Compared with `CC1Cc2ccccc2N1S(=O)(=O)c1cccc(C(=O)Nc2ccc(S(=O)(=O)N(C)C)cc2)c1` (stereo not drawn) [I-526, N-(4-(N,N-dimethylsulfamoyl)phenyl)-3-((2-methylindolin-1-yl)sulfonyl)benzamide], `CC1Cc2ccccc2N1S(=O)(=O)c1cccc(C(=O)Nc2cccc3cccnc23)c1` (stereo not drawn) [I-484, 3-((2-methylindolin-1-yl)sulfonyl)-N-(quinolin-8-yl)benzamide] is higher in “% Inhibition of Apyrase” value: 55% for the first, 58% for the second.

First: O=C(Nc1ccccc1)c1ccc(Cl)c(S(=O)(=O)Nc2ccc(Br)cc2)c1 [I-43, 3-(N-(4-bromophenyl)sulfamoyl)-4-chloro-N-phenylbenzamide]
Second: O=C(Nc1cccc(S(=O)(=O)Nc2ccc(Br)cc2)c1)c1ccc(Cl)nc1 [I-703, N-(3-(N-(4-bromophenyl)sulfamoyl)phenyl)-6-chloronicotinamide]
The “% Inhibition of Apyrase” value of the first is lower: 13% for the first, 71% for the second.

First: O=C(Nc1cccc(S(=O)(=O)Nc2ccc(Cl)cc2)c1)c1ccoc1 [I-712, N-(3-(N-(4-chlorophenyl)sulfamoyl)phenyl)furan-3-carboxamide]
Second: O=C(Nc1cccc(S(=O)(=O)Nc2ccc(Br)cc2)c1)c1ccsc1 [I-701, N-(3-(N-(4-bromophenyl)sulfamoyl)phenyl)thiophene-3-carboxamide]
The “% Inhibition of Apyrase” value of the first is lower: 59% for the first, 79% for the second.

Going from `COc1ccc(N(C)S(=O)(=O)c2cccc(C(=O)N3CCc4ccccc43)c2)cc1` [I-540, 3-(indoline-1-carbonyl)-N-(4-methoxyphenyl)-N-methylbenzenesulfonamide] to `COc1cc(C(=O)Nc2cccc(S(=O)(=O)N(C)c3ccccc3)c2)ncn1` [I-753, 6-methoxy-N-(3-(N-methyl-N-phenylsulfamoyl)phenyl)pyrimidine-4-carboxamide], the “% Inhibition of Apyrase” value falls from 54% to 37%.

Compared with `COc1ccc(NS(=O)(=O)c2cccc(NC(=O)c3cccs3)c2)cc1` [I-771, N-(3-(N-(4-methoxyphenyl)sulfamoyl)phenyl)thiophene-2-carboxamide], `COc1ccc(NC(=O)c2cccc(S(=O)(=O)Nc3ccc(Br)cc3)c2)cn1` [I-280, 3-(N-(4-bromophenyl)sulfamoyl)-N-(6-methoxypyridin-3-yl)benzamide] is higher in “% Inhibition of Apyrase” value: 6% for the first, 40% for the second.

Compared with `CCCCc1nnc(NC(=O)c2cccc(NS(=O)(=O)c3ccc(C)c(F)c3)c2)s1` [I-647, N-(5-butyl-1,3,4-thiadiazol-2-yl)-3-((3-fluoro-4-methylphenyl)sulfonamido)benzamide], `CCOC(=O)c1c(NC(=O)c2cccc(S(=O)(=O)Nc3cccc(Cl)c3)c2)sc2c1CCCC2` [I-507, ethyl 2-(3-(N-(3-chlorophenyl)sulfamoyl)benzamido)-4,5,6,7-tetrahydrobenzo[b]thiophene-3-carboxylate] is higher in “% Inhibition of Apyrase” value: 53% for the first, 57% for the second.

Going from `Nc1c(Cl)cc(NC(=O)c2cccc(S(=O)(=O)N3CCc4ccccc43)c2)cc1Cl` [I-439, N-(4-amino-3,5-dichlorophenyl)-3-(indolin-1-ylsulfonyl)benzamide] to `O=C(Nc1cccc(NS(=O)(=O)c2ccc(Cl)cc2)c1)c1ccccc1` [I-344, N-(3-((4-chlorophenyl)sulfonamido)phenyl)benzamide], the “% Inhibition of Apyrase” value falls from 63% to 56%.

Going from `Cc1cccc(NS(=O)(=O)c2ccc(C(=O)Nc3cccc(C#N)c3)cc2)c1C` [I-206, N-(3-cyanophenyl)-4-(N-(2,3-dimethylphenyl)sulfamoyl)benzamide] to `O=C(Nc1ccccc1NS(=O)(=O)c1cccs1)c1ccc(Br)cc1` [I-830, 4-bromo-N-(2-(thiophene-2-sulfonamido)phenyl)benzamide], the “% Inhibition of Apyrase” value falls from 74% to 60%.

For `COc1cc(Cl)c(C)cc1NC(=O)c1ccccc1S(=O)(=O)N(C)c1ccccc1` [I-350, N-(4-chloro-2-methoxy-5-methylphenyl)-2-(N-methyl-N-phenylsulfamoyl)benzamide], the “% Inhibition of Apyrase” value was 66%.
